The assay addresses T1, human HPK1 (MAP4K1) (Homo sapiens, UniProt Q92918).
T1 construct: human HPK1 (aa 1-346); purchased Invitrogen PV6355
T1 sequence (Q92918 1-346): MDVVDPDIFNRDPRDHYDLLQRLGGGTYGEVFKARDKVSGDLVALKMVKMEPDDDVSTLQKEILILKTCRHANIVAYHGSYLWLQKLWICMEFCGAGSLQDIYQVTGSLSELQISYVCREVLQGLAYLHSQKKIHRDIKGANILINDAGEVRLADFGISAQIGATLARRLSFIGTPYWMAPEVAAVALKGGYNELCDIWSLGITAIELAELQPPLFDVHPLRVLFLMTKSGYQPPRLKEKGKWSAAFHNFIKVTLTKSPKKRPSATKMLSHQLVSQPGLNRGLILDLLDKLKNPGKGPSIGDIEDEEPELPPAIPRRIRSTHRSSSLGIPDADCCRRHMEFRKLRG
Nature of the assay: HPK1 inhibition assay (indirect ELISA). Format: biochemical. The following applies: GST-HPK1 0.6 nM, 12 μM ATP; read-out: IC50 Range HPK1. The protocol: Active HPK1 (MAP4K1) was purchased as an N-terminal GST fusion of human HPK1 (aa 1-346) from Invitrogen (cat #PV6355). HPK1 activity was measured using an indirect ELISA detection system. GST-HPK1 (0.6 nM) was incubated in the presence of 12 μM ATP (Sigma cat #A7699), 5 mM MOPS (pH 7.2), 2.5 mM β-glycerol-phosphate, 5 mM MgCl2, 0.4 mM EDTA, 1 mM EGTA, 0.05 mM DTT, in a 96 well microtitre plate pre-coated with 0.5 μg/well bovine myelin basic protein (MBP) (Millipore, cat #13-110). The reaction was allowed to proceed for 30 min, followed by 5 washes of the plate with Wash Buffer (phosphate buffered saline supplemented with 0.2% Tween 20), and incubation for 30 min with a 1:3000 dilution of anti-phospho-threonine rabbit polyclonal antibody (Cell Signaling cat #9381). The plate was washed 5 times with wash buffer, incubated for 30 min in the presence of goat anti-rabbit horse radish peroxidase conjugate (BioRad cat #1721019, 1:3000 concentration), washed an additional 5 times with wash buffer, and incubated in the presence of TMB substrate (Sigma cat #T0440). The colorimetric reaction was allowed to continue for 5 min, followed by addition of stop solution (0.5 N H2SO4), and quantified by detection at 450 nm with a monochromatic plate reader (Molecular Devices M5).
Compound inhibition was determined at either a fixed concentration (10 μM) or at a variable inhibitor concentration (typically 50 μM to 0.1 μM in a 10 point dose response titration). Compounds were pre-incubated in the presence of enzyme for 15 min prior to addition of ATP and the activity remaining quantified using the above described activity assay. The % inhibition of a compound was determined using the following formula; % inhibition=100×(1−(experimental value−background value)/(high activity control−background value)). The IC50 value was determined using a non-linear 4 point logistic curve fit (XLfit4, IDBS) with the formula; (A+(B/(1+((x/C)^D)))), where A=background value, B=range, C=inflection point, D=curve fit parameter.
In general terms: An ELISA detects its analyte on a solid surface through an enzyme-linked reagent.

Where only a bound is given, the exact number is not on record here.

Usually IC50 stands for the concentration needed to halve the response being measured.

Regarding `COCCNc1c(-c2nc3ccc(N4CCN(C)CC4)cc3[nH]2)c(=O)[nH]c2sccc12` [Example A74, 4-((2-methoxyethyl)amino)-5-(6-(4-methylpiperazin-1-yl)-1H-benzo[d]imidazol-2-yl)thieno[2,3-b]pyridin-6(7H)-one], the IC50 is not above 50 nM.
With `Cc1cc2c(N)c(-c3nc4ccc(N5CCN(C)CC5)cc4[nH]3)c(=O)[nH]c2s1` [Example A3, 4-amino-2-methyl-5-(6-(4-methylpiperazin-1-yl)-1H-benzo[d]imidazol-2-yl)thieno[2,3-b]pyridin-6(7H)-one], the IC50 is more than 500 nM.
As for `C[C@@H]1CN(c2ccc3nc(-c4c(NC5CCCC5)c5sccc5[nH]c4=O)[nH]c3c2)C[C@H](C)N1C` [Example A47, 7-(cyclopentylamino)-6-(6-(3r,5s)-rel-3,4,5-trimethylpiper-azin-1-yl)-1H-benzo[d]imidazol-2-yl)thieno[3,2-b]pyridin-5(4H)-one], the IC50 is not above 50 nM.
For `CN1CCN(c2ccc3nc(-c4c(N[C@@H]5CCC[C@H]5O)c5cscc5[nH]c4=O)[nH]c3c2)CC1` [Example A75, 4-(((1R,2R)-2-hydroxycyclopentyl)amino)-3-(6-(4-methylpiperazin-1-yl)-1H-benzo[d]imidazol-2-yl)thieno[3,4-b]pyridin-2(1H)-one] the value was not above 50 nM; for `CCOc1csc2[nH]c(=O)c(-c3nc4ccc(N5CCN(C)CC5)cc4[nH]3)c(N)c12` [Example A6, 4-amino-3-ethoxy-5-(6-(4-methylpiperazin-1-yl)-1H-benzo[d]imidazol-2-yl)thieno[2,3-b]pyridin-6(7H)-one], 50 to 500 nM; for `Nc1c(-c2nc3cc(F)c(N4CCOCC4)cc3[nH]2)c(=O)[nH]c2sccc12` [Example A56, 4-amino-5-(5-fluoro-6-morpholino-1H-benzo[d]-imidazol-2-yl)-thieno-[2,3b]-pyridin-6(7H)-one], not above 50 nM.
With `CN1CCN(c2ccc3nc(-c4c(NC5CC5)c5sccc5[nH]c4=O)[nH]c3c2)CC1` [Example A63, 7-(cyclopropylamino)-6-(6-(4-methylpiperazin-1-yl)-1H-benzo[d]imidazol-2-yl)thieno[3,2-b]-pyridin-5(4H)-one 2,2,2-trifluroaceatate], the IC50 was not above 50 nM.
For `Cc1csc2[nH]c(=O)c(-c3nc4ccc(N5CCN(C)CC5)cc4[nH]3)c(NC3CCCC3)c12` [Example A19, 4-(cyclopentylamino)-3-methyl-5-(6-(4-methylpiperazin-1-yl)-1H-benzo[d]imidazol-2-yl)thieno[2,3-b]pyridin-6(7H)-one] the value was 50 to 500 nM; for `CN1CCN(c2ccc3nc(-c4c(NCCN5CCOCC5)c5cscc5[nH]c4=O)[nH]c3c2)CC1` [Example A26, 3-(6-(4-methylpiperazin-1-yl)-1H-benzo[d]imidazol-2-yl)-4-((2-morpholinoethyl)amino) thieno[3,4-b]pyridin-2(1H)-one], not above 50 nM.
`CN1CCN(c2ccc3nc(-c4c(NC5CCOCC5)c5cscc5[nH]c4=O)[nH]c3c2)CC1` [Example A25, 3-(6-(4-methylpiperazin-1-yl)-1H-benzo[d]imidazol-2-yl)-4-((tetrahydro-2H-pyran-4-yl)amino)thieno[3,4-b]pyridin-2(1H)-one]: the IC50 was not above 50 nM.
With `Nc1c(-c2nc3cc(C(=O)N4CCOCC4)ccc3[nH]2)c(=O)[nH]c2sccc12` [Example A62, 4-amino-5-(5-(morpho-line-4-carbonyl)-1H-benzo-[d]imidazol-2-yl)thieno[2,3-b]pyridin-6(7H)-one] the figure was 50 to 500 nM; with `CC(C)[C@H](CO)Nc1c(-c2nc3ccc(N4CCN(C)CC4)cc3[nH]2)c(=O)[nH]c2sccc12` [Example A16, (R)-4-((1-hydroxy-3-methylbutan-2-yl)amino)-5-(6-(4-methylpiperazin-1-yl)-1H-benzo[d]imidazol-2-yl)thieno[2,3-b]pyridin-6(7H)-one], not above 50 nM.
